Values of other authors as cited in patent publication US20030021749A1, “Treatment of cancer and other diseases by administration of positron-emitting radiopharmaceuticals” (priority 2000, published 2003).

Conditions: compared with FDG

Structure (SMILES): C[N+](C)(CF)CCO [FCH, fluorine-18 fluorocholine]
- accumulation in normal brain tissue: does not accumulate in normal brain tissue as readily as FDG
- concentration in tumor tissues: higher concentration in tumor tissues
